Measured values as given in ChEMBL document CHEMBL5625201, “Discovery and structure-activity relationship studies of novel α-ketoamide derivatives targeting the SARS-CoV-2 main protease” (Eur J Med Chem, 2023).

Experiments:
[1] = target: T1, Replicase polyprotein 1ab (Severe acute respiratory syndrome coronavirus 2, UniProt P0DTD1); assay: Inhibition of SARS-CoV-2 main protease by FRET assay
[2] = test system: SARS-CoV-2; assay: Antiviral activity against SARS-CoV-2 infected in human HPAEpiC cells assessed as reduction in viral replication by RT-qPCR assay; type: functional, organism-based; conditions: Severe acute respiratory syndrome coronavirus 2, HPAEpiC
[3] = target: Cytochrome P450 3A4 (Homo sapiens, UniProt P08684); assay: Inhibition of CYP3A4 (unknown origin); type: ADME
[4] = target: Cytochrome P450 2C9 (Homo sapiens, UniProt P11712); assay: Inhibition of CYP2C9 (unknown origin); type: ADME
[5] = Cytotoxicity against human BEAS-2B cells; type: toxicity, cell-based
[6] = Cytotoxicity against African green monkey Vero cells; type: toxicity, cell-based; conditions: chlorocebus sabaeus
[7] = target: T1, Replicase polyprotein 1ab; assay: Inhibition of SARS-CoV-2 Main protease using MCA-AVLQSGFR-Lys(DNP)-Lys-NH2 as substrate preincubated for 10 mins followed by substrate addition by FRET assay
[8] = test system: SARS-CoV-2; assay: Antiviral activity against SARS CoV-2 infected in African green monkey VeroE6/TMPRSS2 assessed as reduction in plaque formation measured after 2 days by crystal violet staining based assay; type: functional, organism-based; conditions: Severe acute respiratory syndrome coronavirus 2, VeroE6/TMPRSS2, 48 h

Sequence of Cytochrome P450 2C9 (P11712 whole entry): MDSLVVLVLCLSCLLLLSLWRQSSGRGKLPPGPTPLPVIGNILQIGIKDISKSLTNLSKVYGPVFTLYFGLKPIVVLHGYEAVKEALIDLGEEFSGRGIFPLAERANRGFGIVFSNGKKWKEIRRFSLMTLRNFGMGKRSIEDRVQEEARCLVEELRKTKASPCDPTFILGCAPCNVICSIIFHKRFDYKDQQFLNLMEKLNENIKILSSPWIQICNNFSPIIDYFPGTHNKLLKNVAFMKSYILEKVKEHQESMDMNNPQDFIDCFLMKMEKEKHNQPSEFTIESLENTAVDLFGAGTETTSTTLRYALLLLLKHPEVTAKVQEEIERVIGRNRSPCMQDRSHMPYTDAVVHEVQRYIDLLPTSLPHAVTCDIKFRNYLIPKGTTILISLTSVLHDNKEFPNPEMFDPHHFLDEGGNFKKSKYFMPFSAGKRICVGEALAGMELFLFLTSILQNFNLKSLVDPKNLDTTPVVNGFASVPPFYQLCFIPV
Sequence of Cytochrome P450 3A4 (P08684 whole entry): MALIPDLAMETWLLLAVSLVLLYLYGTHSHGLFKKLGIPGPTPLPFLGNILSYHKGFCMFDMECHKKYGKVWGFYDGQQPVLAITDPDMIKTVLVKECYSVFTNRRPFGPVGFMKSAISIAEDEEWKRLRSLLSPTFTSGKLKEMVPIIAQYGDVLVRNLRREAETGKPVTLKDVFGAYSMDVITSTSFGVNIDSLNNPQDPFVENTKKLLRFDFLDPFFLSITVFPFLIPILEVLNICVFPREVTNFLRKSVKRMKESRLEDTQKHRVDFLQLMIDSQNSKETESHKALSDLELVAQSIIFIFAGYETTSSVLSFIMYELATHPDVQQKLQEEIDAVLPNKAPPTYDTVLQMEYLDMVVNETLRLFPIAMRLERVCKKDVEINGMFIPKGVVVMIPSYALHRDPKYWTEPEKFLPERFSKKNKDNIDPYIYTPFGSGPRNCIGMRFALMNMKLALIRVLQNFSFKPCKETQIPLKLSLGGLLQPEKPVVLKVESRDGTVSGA

O=C(Cc1ccccc1)N[C@H](Cc1ccccc1)C(=O)C(=O)NCc1ccccn1
IC50 [1]: 219 nM

CCC(CC)COC(=O)[C@H](C)N[P@](=O)(OC[C@H]1O[C@@](C#N)(c2ccc3c(N)ncnn23)[C@H](O)[C@@H]1O)Oc1ccccc1
EC50 [2]: 364 nM

CN(CC(=O)N[C@H](Cc1ccccc1)C(=O)C(=O)NCc1ccccn1)C(=O)C1CCC(F)(F)CC1
IC50 [1]: 30.6 nM

O=C(CCc1ccccc1)N[C@H](Cc1ccccc1)C(=O)C(=O)NCc1ccccn1
inhibition (INH) [3]: Active | inhibition (INH) [4]: Active | IC50 [1]: 86.7 nM

C[C@@H](NC(=O)C1CCC(F)(F)CC1)C(=O)N[C@H](Cc1ccccc1)C(=O)C(=O)NCc1ccccn1
CC50 [5]: > 100000 nM | CC50 [6]: > 100000 nM | EC50 [2]: 65.3 nM

N#Cc1cc(C(=O)NCC(=O)N[C@H](Cc2ccccc2)C(=O)C(=O)NCc2ccccn2)ccc1F
IC50 [1]: 168 nM

[2H][C@](C(=O)N[C@@H](C)c1ccc(F)cc1)(c1ccccc1)N(C(=O)C(C)=O)c1ccc2c(c1)oc1ccccc12
IC50 [7]: 8 nM | EC50 [8]: 11 nM

O=C(NCc1ccccn1)C(=O)[C@@H](Cc1ccccc1)NC(=O)C1(NC(=O)C2CCC(F)(F)CC2)CC1
IC50 [1]: 21.2 nM

O=C(CNC(=O)c1ccccc1)N[C@H](Cc1ccccc1)C(=O)C(=O)NCc1ccccn1
inhibition (INH) [3]: Active | inhibition (INH) [4]: Active | IC50 [1]: 141 nM

O=C(CNC(=O)C1CCC(F)(F)CC1)N[C@H](Cc1ccccc1)C(=O)C(=O)NCc1ccccn1
CC50 [5]: > 100000 nM | CC50 [6]: > 100000 nM | EC50 [2]: 102 nM

C[C@@H](NC(=O)CC1CCC(F)(F)CC1)C(=O)N[C@H](Cc1ccccc1)C(=O)C(=O)NCc1ccccn1
IC50 [1]: 16.1 nM

COC[C@@H](NC(=O)C1CCC(F)(F)CC1)C(=O)N[C@H](Cc1ccccc1)C(=O)C(=O)NCc1ccccn1
CC50 [5]: > 100000 nM | CC50 [6]: > 100000 nM | IC50 [1]: 17 nM | EC50 [2]: 59.5 nM

O=C(CC1CCC(F)(F)CC1)NCC(=O)N[C@H](Cc1ccccc1)C(=O)C(=O)NCc1ccccn1
IC50 [1]: 15 nM

O=C(CNC(=O)C1CCC(F)(F)CC1)N[C@H](Cc1ccc(Cl)c(Cl)c1)C(=O)C(=O)NCc1ccccn1
IC50 [1]: 34.4 nM

CC(C)(C)[C@H](NC(=O)C(F)(F)F)C(=O)N1C[C@H]2[C@@H]([C@H]1C(=O)N[C@H](C#N)C[C@@H]1CCNC1=O)C2(C)C
EC50 [2]: 50 nM

O=C(CNC(=O)c1ccc(Cl)c(F)c1)N[C@H](Cc1ccccc1)C(=O)C(=O)NCc1ccccn1
IC50 [1]: 18.5 nM

O=C(COc1ccccc1)N[C@H](Cc1ccccc1)C(=O)C(=O)NCc1ccccn1
inhibition (INH) [3]: Active | inhibition (INH) [4]: Active | IC50 [1]: 55.5 nM

CC[C@@H](NC(=O)C1CCC(F)(F)CC1)C(=O)N[C@H](Cc1ccccc1)C(=O)C(=O)NCc1ccccn1
IC50 [1]: 41.6 nM

O=C(CNC(=O)[C@@H]1C[C@@H]2[C@H](C1)C2(F)F)N[C@H](Cc1ccccc1)C(=O)C(=O)NCc1ccccn1
IC50 [1]: 17.9 nM

O=C(NCc1ccccn1)C(=O)[C@@H](Cc1ccccc1)NC(=O)c1ccccc1
IC50 [1]: 208 nM

O=C(CCCc1ccccc1)N[C@H](Cc1ccccc1)C(=O)C(=O)NCc1ccccn1
inhibition (INH) [3]: Active | inhibition (INH) [4]: Active | IC50 [1]: 33.8 nM

C[C@@H](NC(=O)[C@@H]1C[C@@H]2[C@H](C1)C2(F)F)C(=O)N[C@H](Cc1ccccc1)C(=O)C(=O)NCc1ccccn1
CC50 [5]: > 100000 nM | CC50 [6]: > 100000 nM | EC50 [2]: 97.8 nM

O=C(NCc1ccccn1)C(=O)[C@@H](Cc1ccccc1)NC(=O)[C@H]1COCCN1C(=O)[C@@H]1C[C@@H]2[C@H](C1)C2(F)F
IC50 [1]: 23.6 nM

O=C(NCc1ccccn1)C(=O)[C@@H](Cc1ccccc1)NC(=O)[C@H]1COCCN1C(=O)CC1CCC(F)(F)CC1
CC50 [5]: > 100000 nM | CC50 [6]: > 100000 nM | IC50 [1]: 10.9 nM | EC50 [2]: 66.4 nM

O=C(NCc1ccccn1)C(=O)[C@@H](Cc1ccccc1)NC(=O)[C@H]1CC(F)(F)CN1C(=O)CC1CCC(F)(F)CC1
IC50 [1]: 35 nM

O=C(NCc1ccccn1)C(=O)[C@@H](Cc1ccccc1)NC(=O)[C@H]1CC(F)(F)CN1C(=O)[C@@H]1C[C@@H]2[C@H](C1)C2(F)F
IC50 [1]: 37.2 nM
